Measured values as given in the OligoGym collection.
After the bases stand the sugars from the 5' end (letter, count) and the backbone: PS all phosphorothioate, else s phosphorothioate and o phosphodiester by linkage. Methylation of C is not given here. e = 2'-O-(2-methoxyethyl) (MOE); k = constrained ethyl (cEt); d = 2'-deoxy (DNA); m = 2'-O-methyl

Molecular target: HSD17B13
Conditions: ASO, HepaRG

Sequence	target mRNA inhibition (1 µM)	also measured
CTATTATGCACTCTAT (sugars k3 d10 k3, PS)	32%	
AATGTCCTAGGATGTT (sugars k3 d10 k3, PS)	70%	
CCTTGTGTAGTCCTAG (sugars k3 d10 k3, PS)	67%	target mRNA inhibition (0.02 µM): 4%; target mRNA inhibition (0.078 µM): 28%; target mRNA inhibition (0.313 µM): 44%; target mRNA inhibition (1.25 µM): 72%; target mRNA inhibition (5 µM): 85%
GCATTGATTCGAAACT (sugars k3 d10 k3, PS)	66%	
TGCATCTTAAGATACC (sugars k3 d9 k3 e1, PS)	37%	
CTCTGGGACCAAGGAT (sugars k3 d10 k3, PS)	51%	
GTTTTCGGCACTCAGC (sugars k3 d10 k3, PS)	51%	
GGCTACTTTCAAACCT (sugars k3 d10 k3, PS)	54%	
GTGTTAGCTTTAATTT (sugars k3 d10 k3, PS)	48%	
ACGCCTAGTTTTCGGC (sugars k3 d10 k3, PS)	7%	
GATTGGAATGCTACTT (sugars kkkddddkddddkkke, PS)	59%	
TCGGCACTCAGCTGCA (sugars k3 d10 k3, PS)	52%	
CATAACTTCATAGTGG (sugars k3 d10 k3, PS)	31%	
ATAGAGTCGGTCACCT (sugars k3 d1 m1 d8 k3, PS)	50%	
TTTTAGTCAGGTAGAG (sugars k3 d10 k3, PS)	3%	
ATGGTAAGCCCCATGC (sugars k3 d10 k3, PS)	22%	
TAAAATAGAGTCGGTC (sugars k3 d10 k3, PS)	81%	target mRNA inhibition (0.02 µM): 1%; target mRNA inhibition (0.078 µM): 9%; target mRNA inhibition (0.313 µM): 47%; target mRNA inhibition (1.25 µM): 80%; target mRNA inhibition (5 µM): 90%
TATAGAGGGTCCACTT (sugars k3 d10 k3, PS)	17%	
GAGGGTCCACTTTTGG (sugars k3 d10 k3, PS)	23%	
GTAAGCACAGAAGTTT (sugars k3 d10 k3, PS)	55%	
TTCTGTGGCATGGCTA (sugars k3 d1 m1 d8 k3, PS)	65%	
TTGGAATGCTACTTGA (sugars k3 d10 k3, PS)	72%	target mRNA inhibition (0.02 µM): 20%; target mRNA inhibition (0.078 µM): 33%; target mRNA inhibition (0.313 µM): 47%; target mRNA inhibition (1.25 µM): 80%; target mRNA inhibition (5 µM): 83%

Sequence	target mRNA inhibition (1 µM)	also measured
GTAGTGGGAGTCGGAT (sugars k3 d10 k3, PS)	48%	
GAATAGAGTTGCACCG (sugars k3 d10 k3, PS)	55%	
CACATAGCTAACTCAG (sugars k3 d10 k3, PS)	42%	
CTTAAGATACCCAGGT (sugars k3 d1 m1 d8 k3, PS)	50%	
AATGTATGAGGTCTCC (sugars k3 d10 k3, PS)	65%	
TACCTCTAAGTTAGCC (sugars k3 d10 k3, PS)	28%	
AATAATAGCTCTATTG (sugars kkdddddddddkekek, PS)	2%	
ACCGTTTTGGGCTAAT (sugars k3 d10 k3, PS)	78%	target mRNA inhibition (0.02 µM): 0%; target mRNA inhibition (0.078 µM): 0%; target mRNA inhibition (0.313 µM): 45%; target mRNA inhibition (1.25 µM): 81%; target mRNA inhibition (5 µM): 95%
GAGAAGGCGGTATCAT (sugars k3 d10 k3, PS)	48%	
ACTTTTAGGGAGGTAG (sugars k3 d10 k3, PS)	20%	
CTCCGTGTAGTTTGGT (sugars k3 d10 k3, PS)	28%	
CTTCATAGTGGACTTC (sugars kkdddddddddkekek, PS)	45%	
GCACTAAAGGTTTCTG (sugars k3 d10 k3, PS)	75%	target mRNA inhibition (0.02 µM): 24%; target mRNA inhibition (0.078 µM): 39%; target mRNA inhibition (0.313 µM): 58%; target mRNA inhibition (1.25 µM): 79%; target mRNA inhibition (5 µM): 90%
CACAAGCACACTGTAA (sugars k3 d10 k3, PS)	2%	
AAGAGCTGGTAAAGGT (sugars k3 d10 k3, PS)	47%	
GTGCATCTTAAGATAC (sugars kkdddddddddkekek, PS)	20%	
CAGCATTGATTCGAAA (sugars k3 d9 k3 e1, PS)	53%	
ATCTATCATGCCTTCC (sugars k3 d10 k3, PS)	6%	
AGAGTTATCTGGTTTG (sugars k3 d10 k3, PS)	56%	
GTATTAAGACAGTTGA (sugars k3 d10 k3, PS)	45%	
GGATGATGTTCATGGC (sugars k3 d10 k3, PS)	82%	target mRNA inhibition (0.02 µM): 4%; target mRNA inhibition (0.078 µM): 40%; target mRNA inhibition (0.313 µM): 75%; target mRNA inhibition (1.25 µM): 80%; target mRNA inhibition (5 µM): 76%
TGTCUAAACATCTCTG (sugars k3 d1 m1 d8 k3, PS)	44%	

Sequence	target mRNA inhibition (1 µM)	also measured
ACGGTGATCAAATGTA (sugars k3 d10 k3, PS)	53%	
ATGCATTAAAACTCTC (sugars k3 d10 k3, PS)	12%	
GTGTTTACAAGTAAGA (sugars k3 d10 k3, PS)	79%	
CTGCAAAGTTAATAGG (sugars k3 d10 k3, PS)	57%	
GTTTCTTATGTAATAG (sugars k3 d10 k3, PS)	46%	
AAAGTTTGTTAGAGTG (sugars k3 d10 k3, PS)	75%	target mRNA inhibition (0.02 µM): 0%; target mRNA inhibition (0.078 µM): 6%; target mRNA inhibition (0.313 µM): 0%; target mRNA inhibition (1.25 µM): 55%; target mRNA inhibition (5 µM): 78%
TAATACATTAGCAAGC (sugars k3 d10 k3, PS)	33%	
CCGTTATAAGTTTCAT (sugars k3 d10 k3, PS)	54%	
GGTAACGGTGATCAAA (sugars k3 d10 k3, PS)	51%	
TATACTGTCCCAGCAT (sugars k3 d10 k3, PS)	40%	
CATAACTACTTCAGTT (sugars k3 d10 k3, PS)	3%	
GCCTTGAATAGCAAGC (sugars kkdddddddddkekek, PS)	16%	
AGGTAGCTAATGTATG (sugars k3 d10 k3, PS)	53%	
ACTACATTAACACCAA (sugars k3 d10 k3, PS)	46%	
CTGCCAGATTGCACAA (sugars k3 d10 k3, PS)	44%	
CCCAAGCTACCTCCAA (sugars k3 d10 k3, PS)	15%	
GTTTUGGGCTAATGAA (sugars k3 d1 m1 d8 k3, PS)	30%	
TCTATTGATTGGCTTA (sugars k3 d10 k3, PS)	39%	
TAAGTTACCAGAGCAT (sugars k3 d10 k3, PS)	77%	target mRNA inhibition (0.02 µM): 0%; target mRNA inhibition (0.078 µM): 0%; target mRNA inhibition (0.313 µM): 30%; target mRNA inhibition (1.25 µM): 71%; target mRNA inhibition (5 µM): 91%
ACTGTATTAAGACAGT (sugars k3 d10 k3, PS)	20%	
CCAAAAATGTCCTAGG (sugars k3 d10 k3, PS)	38%	
TGTGATTGAGTTCTCC (sugars k3 d9 k3 e1, PS)	52%	
